Values belong to the compound of their own block, whether it stands above or below them.
How the values were obtained:
[1] = Extraction of butyric acid from CGM medium with TOA in oleyl alcohol (Example 1.1); assay type: physicochemical; conditions: CGM medium with 5% butyric acid, pH 4, 37° C.
Experimental: 50 ml of CGM culture medium (basal medium, see the table provided immediately below) containing 5% of butyric acid (the pH of the CGM medium decreased to 4 after the addition of the butyric acid) was mixed with 5 ml of 0.7 M, 1 M, […] of trioctylamine (C24H51N, CAS No. 1116-76-3, abbreviation: TOA) in oleyl alcohol at 37° C.
The concentrations of butyric acid in the CGM culture medium (i.e., the aqueous phase) and in the trioctylamine solution (i.e., the organic phase) were measured every 12 hours by high performance liquid chromatography (HPLC).
The butyric acid distribution ratio (D) was calculated by dividing the concentration of butyric acid in the organic medium by the concentration of butyric acid in the aqueous medium: […]

[2] = Extraction of butyric acid from CGM medium with TOPO in oleyl alcohol (Example 1.2); assay type: physicochemical; conditions: 24 hours, 37° C.
Experimental: The butyric acid distribution ratio (D) was calculated by dividing the concentration of butyric acid in the organic medium by the concentration of butyric acid in the aqueous medium:
[…] The pH of the culture medium was further adjusted to a value ranging from 4 to 6 with 4 N NaOH and 4 N HCl.
After 24 hours, the concentrations of butyric acid in the CGM culture medium (the aqueous phase) and in the TOPO solution (the organic phase) were measured by HPLC.

[3] = tested on: PVA-immobilized clostridium tyrobutyricum; test: Extractive fermentation-column reactor, 1 M TOPO or TBP in oleyl alcohol (Example 4C); assay type: cell-based; conditions: 1 M extractant in oleyl alcohol as organic phase; 37° C., 100 hours
Experimental: In addition, the upper region of the reactor was filled with either 40 ml of 1 M TOPO in oleyl alcohol or 40 ml 1 M TBP in oleyl alcohol. The fermentation was conducted at 37° C. for 100 hours.

[4] = tested on: C. tyrobutyricum ATCC25755; test: Free-cell culture with organic solution on top of the culture medium (Example 2); assay type: cell-based; conditions: free cells, 24 hours at 37° C.
Experimental: The culture medium was then inoculated with 0.08 ml of bacterial stock comprising C. tyrobutyricum ATCC25755. The initial optical density (OD) measured at a wavelength of 600 nm was 0.2. After inoculation, 0.8 ml of an organic solution (as listed in the Table 4 below) was added to the top of the culture medium. The bacteria was then cultured in Tecan infinite 200 Pro Multimode Microplate Readers (Tecan Group Ltd., Switzerland) for 24 hours at 37° C., with shaking once every 30 minutes.

[5] = tested on: PVA-immobilized clostridium tyrobutyricum; test: 2-liter tank fermentor extractive fermentation (Example 5); assay type: cell-based; conditions: 37° C., 40 hours
Description: A 2-liter tank fermentor 500 as illustrated in FIG. 5 was used in this Example. […] The medium was then purged with N2 to reach anaerobiosis. The pH of the basal medium was further adjusted to 6.0 with 2 N NaOH. Subsequently, the medium was inoculated with about 100 g of PVA-immobilized C. tyrobutyricum cell beads prepared as described above. An extractive fermentation-column reactor similar to the one shown in FIG. 5 was used in this example. The lower region of the reactor was filled with 700 ml of the basal medium containing glucose as the substrate and inoculated with about 70 ml of PVA-immobilized clostridium tyrobutyricum. In addition, the upper region of the reactor was filled with either 700 ml of 1 M TOPO in oleyl alcohol or 700 ml of oleyl alcohol without TOPO. The fermentation was conducted at 37° C. for 40 hours, and the pH of the fermentation medium was not controlled in this example.

- Butyric acid distribution ratio (D) ([1]; 0.7M TOA in oleyl alcohol): 7.38
- Butyric acid distribution ratio (D) ([1]; 1M TOA in oleyl alcohol): 10.21
- Butyric acid distribution ratio (D) ([1]; 1.4M TOA in oleyl alcohol): 13.82
SMILES: CCCCCCCCN(CCCCCCCC)CCCCCCCC [TOA, trioctylamine]

- butyric acid distribution ratio ([2]; TOPO 0.1 M in oleyl alcohol, butyric acid 1%, pH 4): 1.45
- butyric acid distribution ratio ([2]; TOPO 0.1 M in oleyl alcohol, butyric acid 1%, pH 5): 0.31
- butyric acid distribution ratio ([2]; TOPO 0.1 M in oleyl alcohol, butyric acid 1%, pH 6): 0.00
- butyric acid distribution ratio ([2]; TOPO 0.1 M in oleyl alcohol, butyric acid 2%, pH 4): 2.12
- butyric acid distribution ratio ([2]; TOPO 0.1 M in oleyl alcohol, butyric acid 2%, pH 5): 0.37
- butyric acid distribution ratio ([2]; TOPO 0.1 M in oleyl alcohol, butyric acid 2%, pH 6): 0.05
- butyric acid distribution ratio ([2]; TOPO 0.1 M in oleyl alcohol, butyric acid 3%, pH 4): 2.17
- butyric acid distribution ratio ([2]; TOPO 0.1 M in oleyl alcohol, butyric acid 3%, pH 5): 0.26
- butyric acid distribution ratio ([2]; TOPO 0.1 M in oleyl alcohol, butyric acid 3%, pH 6): 0.00
- butyric acid distribution ratio ([2]; TOPO 0.5 M in oleyl alcohol, butyric acid 1%, pH 4): 1.91
- butyric acid distribution ratio ([2]; TOPO 0.5 M in oleyl alcohol, butyric acid 1%, pH 5): 0.36
- butyric acid distribution ratio ([2]; TOPO 0.5 M in oleyl alcohol, butyric acid 1%, pH 6): 0.03
- butyric acid distribution ratio ([2]; TOPO 0.5 M in oleyl alcohol, butyric acid 2%, pH 4): 2.82
- butyric acid distribution ratio ([2]; TOPO 0.5 M in oleyl alcohol, butyric acid 2%, pH 5): 0.37
- butyric acid distribution ratio ([2]; TOPO 0.5 M in oleyl alcohol, butyric acid 2%, pH 6): 0.06
- butyric acid distribution ratio ([2]; TOPO 0.5 M in oleyl alcohol, butyric acid 3%, pH 4): 2.90
- butyric acid distribution ratio ([2]; TOPO 0.5 M in oleyl alcohol, butyric acid 3%, pH 5): 0.35
- butyric acid distribution ratio ([2]; TOPO 0.5 M in oleyl alcohol, butyric acid 3%, pH 6): 0.04
- butyric acid distribution ratio ([2]; TOPO 1 M in oleyl alcohol, butyric acid 1%, pH 4): 2.67
- butyric acid distribution ratio ([2]; TOPO 1 M in oleyl alcohol, butyric acid 1%, pH 5): 0.42
- butyric acid distribution ratio ([2]; TOPO 1 M in oleyl alcohol, butyric acid 1%, pH 6): 0.06
- butyric acid distribution ratio ([2]; TOPO 1 M in oleyl alcohol, butyric acid 2%, pH 4): 3.88
- butyric acid distribution ratio ([2]; TOPO 1 M in oleyl alcohol, butyric acid 2%, pH 5): 0.43
- butyric acid distribution ratio ([2]; TOPO 1 M in oleyl alcohol, butyric acid 2%, pH 6): 0.04
- butyric acid distribution ratio ([2]; TOPO 1 M in oleyl alcohol, butyric acid 3%, pH 4): 4.20
- butyric acid distribution ratio ([2]; TOPO 1 M in oleyl alcohol, butyric acid 3%, pH 5): 0.35
- butyric acid distribution ratio ([2]; TOPO 1 M in oleyl alcohol, butyric acid 3%, pH 6): 0.04
SMILES: CCCCCCCCP(=O)(CCCCCCCC)CCCCCCCC [TOPO, trioctylphosphine oxide]
- Cells growth (Δ OD600) [3]: 6.0

- Distribution ratio of butryic acid [5]: 0.86
SMILES: CCCCCCCC/C=C\CCCCCCCCO [Oleyl alcohol only, oleyl alcohol]
- Glucose consumption rate % [4]: 80.7%
- Bacterial Growth rate (OD/h) ([4]; OD at 600 nm): 0.08 OD/h
- % of glucose consumed [5]: 100%
